Measured values from patent publication US20120288509A1, “ANALYSIS OF METHYLATED NUCLEIC ACID” (priority 2004, published 2012).

Tested on: SW48 cells
Assay: 5-Aza-dC treatment and RT-PCR: reactivation of silenced genes in SW48 cells
Assay type: cell-based
Details: SW48 colon cancer cells, 5 μM 5-Aza-dC for 4 days, subset of candidate genes, versus untreated cells
Excerpt: FIG. 3: Validation of novel targets for aberrant methylation in colon cancer. A. Primers for PCR were designed for positive clones identified in the microarray analysis as hypermethylated in SW48 cells. DNA methylation was controlled by Single-gene PCR on enriched methylated samples prepared from WI38 primary fibroblasts and SW48 colon cancer cells according to the method described above. IN=input genomic DNA, M=enriched methylated DNA. As a separate control the inventors analyzed samples prepared from matched normal colon (N) and colon tumor (T) from three patients. MLH1 and RASSF1A have previously been described to be aberrantly methylated in SW48 cells and in some colon tumors. The imprinted H19 ICR sequence serves as a positive control for methylation. B. Control of methylation status by methylation-sensitive restriction. Genomic DNA was either digested with the methylation-sensitive HpaII enzyme or undigested and used as a PCR template with primers spanning a HpaII-containing PCR fragments in three randomly selected positive clones (top) and negative clones (bottom). The number of HpaII sites within the PCR amplicon is indicated in parenthesis. Presence of a PCR product after HpaII digest reflects DNA methylation in the sample and in each case confirms the above described enrichment analysis. C. Reactivation of silenced genes in SW48 cells by 5-Aza-dC treatment. […]

In the case of `Nc1ncn([C@H]2C[C@H](O)[C@@H](CO)O2)c(=O)n1` [5-Aza-dC], the “transcription of silenced (methylated) genes by RT-PCR after treatment with the demethylating agent” value is reported as “derepression”.
